Source: patent publication US6383766B1, “Reduced cortisol conjugates” (Ortho-Clinical Diagnostics, Inc., priority 1998, dated 2002)

Legend:
[1] = system: biotinylated sheep anti-cortisol gamma globulin (anti-cortisol antibody); assay: VITROS ECi chemiluminescence competitive immunoassay, cross-reactivity (50% displacement of HRP-labeled conjugate); format: binding; conditions: cortisol conc. displacing 50% / cross-reactant conc. displacing 50% x 100; for Percent Cross-Reactivity, HRP-RC Invention Label: HRP labeled reduced cortisol-3-CMO-BSA (HRP-RC) as label; for Percent Cross-Reactivity, HRP-NRC Comparative Label: comparative HRP labeled nonreduced cortisol conjugate (HRP-NRC) as label
Description: Evaluation of the HRP labeled reduced cortisol-3-CMO-BSA (hereinafter referred to as HRP-RC conjugate) was evaluated using an Ortho-Clinical Diagnostic VITROS ECi chemiluminesence-based assay methodology.
100 ng/mL reduced cortisol-3-CMO-BSA-HRP (or 20 ng/mL of a comparative HRP-cortisol conjugate label, which is not a conjugate label of the present invention, but which was carried through the same procedures as the label of the invention except for the reduction step)
1.5 μg/mL biotinylated sheep anti-cortisol gamma globulin
An aliquot (75 μL) of anti-cortisol biotinylated sheep antibody, 30 μL of sample, serum comprising cortisol or a steroid structurally similar to cortisol (below), and 75 μL of HRP-RC conjugate were added to an VITROS ECi sample container to which strepavidin had been prebound. The solution was incubated at 37° C. for 30 minutes, then washed using the above-indicated wash reagent.
A 200 μL aliquot of the above-indicated signal reagent solution (100 μL of part A and 100 μL of part B combined just prior to use) was then added to the sample container. The solution was incubated for 5 minutes at 37° C., and the chemiluminesence intensity was then determined.
The above method was used to determine the concentration of potential cross reactant (steroid that is structurally similar to cortisol: 11-deoxycortisol, prednisolone, corticosterone and cortisone) that displaced fifty percent of a fixed amount of a comparative HRP labeled cortisol conjugate (nonreduced cortisol, HRP-NRC) or HRP-RC conjugate bound to a fixed amount of anti-cortisol antibody.
Varied levels of the potential cross reactant were added to sample containers containing either the comparative labeled cortisol conjugate (nonreduced cortisol, HRP-NRC) or HRP-RC conjugate of the instant invention, as described above.
The concentration of cross reactant resulting in a light signal measurement corresponding to 50% of the maximum attainable (all conjugate displaced) was determined and used to calculate the percent cross reactivity as described below and whose results are listed in Table 1.
Percent cross-reactivity is defined as The concentration of cortisol that displaced 50% of the HRP-NRC comparative conjugate (or the HRP-RC conjugate) divided by the concentration of cross-reactant that displaced 50% of the HRP-NRC comparative conjugate (or the HRP-RC conjugate) multiplied by 100 as determined per the assay method described hereinabove.

[2] = system: anti-cortisol antibody; conditions: prior art commercial cortisol assays; cited from earlier work

Row | Structure (SMILES) | Percent Cross-Reactivity, HRP-RC Invention Label [1] [%] | Percent Cross-Reactivity, HRP-NRC Comparative Label [1] [%] | cross-reactivity in commercial cortisol assays [2]
1 | C[C@]12CCC(=O)C=C1CC[C@@H]1[C@@H]2CC[C@@]2(C)[C@H]1CC[C@]2(O)C(=O)CO [11-deoxycortisol] | 2.2 | 28.4 | greater than 10%
2 | C[C@]12C[C@H](O)[C@H]3[C@@H](CCC4=CC(=O)CC[C@@]43C)[C@@H]1CC[C@@H]2C(=O)CO [corticosterone] | 3.3 | 4.4 | –
3 | C[C@]12CCC(=O)C=C1CC[C@@H]1[C@@H]2[C@@H](O)C[C@@]2(C)[C@H]1CC[C@]2(O)C(=O)CO [cortisol] | 100 | 100 | –
4 | C[C@]12CCC(=O)C=C1CC[C@@H]1[C@@H]2C(=O)C[C@@]2(C)[C@H]1CC[C@]2(O)C(=O)CO [cortisone] | 1.8 | 5.5 | –
5 | C[C@]12C=CC(=O)C=C1CC[C@@H]1[C@@H]2[C@@H](O)C[C@@]2(C)[C@H]1CC[C@]2(O)C(=O)CO [prednisolone] | 24.6 | 34.8 | –
